# According to PubChem BioAssay AID1963427 (Molecular Pharmacology Branch, DTP, NCI, 2024):
# Test system: 317291-083-R-J1-PDC complex spheroid growth
# Assay: Anticancer human tumor 317291-083-R-J1-PDC patient-derived soft tissue sarcoma cell line growth inhibition [Asc]
# Settings: for IC50: curve of first compound; for viability, T/C: stronger effect = lower value
# Procedure, shortened: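 Concentration series start at each agent's clinical Cmax, or at 10 microM when none is established, and drop in half-log steps; agents are applied alone or together to complex spheroids built with HUVEC and hMSC.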
# 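Also: compound exposure lasted seven days after spheroids formed for three days.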
# 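For viability, T/C in this document: 100% = DMSO vehicle control wells.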
compound,measurement,setting,value
Cc1nc(N2CCC3(CC2)COC(C)C3N)c(CO)nc1Sc1ccnc(N)c1Cl (centres undefined) + CNC(C)C(=O)NC1CN(S(=O)(=O)c2cccc(S(=O)(=O)N3CCC4CCC(C(=O)NC(c5ccccc5)c5ccccc5)N4C(=O)C(NC(=O)C(C)NC)C3)c2)CCC2CCC(C(=O)NC(c3ccccc3)c3ccccc3)N2C1=O,IC50,second compound 0.00316 µM,2210 nM
same,IC50,second compound 0.01 µM,1150 nM
same,IC50,second compound 0.0316 µM,1960 nM
same,IC50,second compound 0.1 µM,89.3 nM
same,IC50,second compound 0.316 µM,< 9.49 nM
same,IC50,second compound 1 µM,< 9.49 nM
same,"viability, T/C","second compound 0.00316 µM, first compound 0.00949 µM",93.4%
same,"viability, T/C","second compound 0.00316 µM, first compound 0.03 µM",70.8%
same,"viability, T/C","second compound 0.00316 µM, first compound 0.0949 µM",80.5%
same,"viability, T/C","second compound 0.00316 µM, first compound 0.3 µM",66.7%
same,"viability, T/C","second compound 0.00316 µM, first compound 0.949 µM",70.2%
same,"viability, T/C","second compound 0.00316 µM, first compound 3 µM",41.9%
same,"viability, T/C","second compound 0.01 µM, first compound 0.00949 µM",75.5%
same,"viability, T/C","second compound 0.01 µM, first compound 0.03 µM",90.1%
same,"viability, T/C","second compound 0.01 µM, first compound 0.0949 µM",67.8%
same,"viability, T/C","second compound 0.01 µM, first compound 0.3 µM",70%
same,"viability, T/C","second compound 0.01 µM, first compound 0.949 µM",52.2%
same,"viability, T/C","second compound 0.01 µM, first compound 3 µM",36.2%
same,"viability, T/C","second compound 0.0316 µM, first compound 0.00949 µM",65.2%
same,"viability, T/C","second compound 0.0316 µM, first compound 0.03 µM",72.8%
same,"viability, T/C","second compound 0.0316 µM, first compound 0.0949 µM",71.3%
same,"viability, T/C","second compound 0.0316 µM, first compound 0.3 µM",63.8%
same,"viability, T/C","second compound 0.0316 µM, first compound 0.949 µM",53.2%
same,"viability, T/C","second compound 0.0316 µM, first compound 3 µM",47.2%
same,"viability, T/C","second compound 0.1 µM, first compound 0.00949 µM",70.3%
same,"viability, T/C","second compound 0.1 µM, first compound 0.03 µM",51.2%
same,"viability, T/C","second compound 0.1 µM, first compound 0.0949 µM",54.1%
same,"viability, T/C","second compound 0.1 µM, first compound 0.3 µM",39.8%
same,"viability, T/C","second compound 0.1 µM, first compound 0.949 µM",39.9%
same,"viability, T/C","second compound 0.1 µM, first compound 3 µM",27.6%
same,"viability, T/C","second compound 0.316 µM, first compound 0.00949 µM",43.5%
same,"viability, T/C","second compound 0.316 µM, first compound 0.03 µM",39.8%
same,"viability, T/C","second compound 0.316 µM, first compound 0.0949 µM",38.1%
same,"viability, T/C","second compound 0.316 µM, first compound 0.3 µM",37.7%
same,"viability, T/C","second compound 0.316 µM, first compound 0.949 µM",32.4%
same,"viability, T/C","second compound 0.316 µM, first compound 3 µM",22.8%
same,"viability, T/C","second compound 1 µM, first compound 0.00949 µM",29.8%
same,"viability, T/C","second compound 1 µM, first compound 0.03 µM",22.5%
same,"viability, T/C","second compound 1 µM, first compound 0.0949 µM",29.8%
same,"viability, T/C","second compound 1 µM, first compound 0.3 µM",23.1%
same,"viability, T/C","second compound 1 µM, first compound 0.949 µM",18.5%
same,"viability, T/C","second compound 1 µM, first compound 3 µM",19.3%
COc1c(OCCCN2CCOCC2)ccc2c3n(c(=NC(=O)c4cnc(N)nc4)nc12)CCN3 + CNC(C)C(=O)NC1CN(S(=O)(=O)c2cccc(S(=O)(=O)N3CCC4CCC(C(=O)NC(c5ccccc5)c5ccccc5)N4C(=O)C(NC(=O)C(C)NC)C3)c2)CCC2CCC(C(=O)NC(c3ccccc3)c3ccccc3)N2C1=O,IC50,second compound 0.00316 µM,79.4 nM
same,IC50,second compound 0.01 µM,68.4 nM
same,IC50,second compound 0.0316 µM,68.7 nM
same,IC50,second compound 0.1 µM,5.31 nM
same,IC50,second compound 0.316 µM,43 nM
same,IC50,second compound 1 µM,< 3.16 nM
same,"viability, T/C","second compound 0.00316 µM, first compound 0.00316 µM",80.1%
same,"viability, T/C","second compound 0.00316 µM, first compound 0.01 µM",81%
same,"viability, T/C","second compound 0.00316 µM, first compound 0.0316 µM",68.1%
same,"viability, T/C","second compound 0.00316 µM, first compound 0.1 µM",43.5%
same,"viability, T/C","second compound 0.00316 µM, first compound 0.316 µM",28.3%
same,"viability, T/C","second compound 0.00316 µM, first compound 1 µM",15.5%
same,"viability, T/C","second compound 0.01 µM, first compound 0.00316 µM",72.6%
same,"viability, T/C","second compound 0.01 µM, first compound 0.01 µM",103%
same,"viability, T/C","second compound 0.01 µM, first compound 0.0316 µM",61.4%
same,"viability, T/C","second compound 0.01 µM, first compound 0.1 µM",42.6%
same,"viability, T/C","second compound 0.01 µM, first compound 0.316 µM",22.7%
same,"viability, T/C","second compound 0.01 µM, first compound 1 µM",13.3%
same,"viability, T/C","second compound 0.0316 µM, first compound 0.00316 µM",76.5%
same,"viability, T/C","second compound 0.0316 µM, first compound 0.01 µM",73.2%
same,"viability, T/C","second compound 0.0316 µM, first compound 0.0316 µM",77%
same,"viability, T/C","second compound 0.0316 µM, first compound 0.1 µM",37.7%
same,"viability, T/C","second compound 0.0316 µM, first compound 0.316 µM",18.2%
same,"viability, T/C","second compound 0.0316 µM, first compound 1 µM",11%
same,"viability, T/C","second compound 0.1 µM, first compound 0.00316 µM",53.8%
same,"viability, T/C","second compound 0.1 µM, first compound 0.01 µM",44.8%
same,"viability, T/C","second compound 0.1 µM, first compound 0.0316 µM",38.9%
same,"viability, T/C","second compound 0.1 µM, first compound 0.1 µM",34.2%
same,"viability, T/C","second compound 0.1 µM, first compound 0.316 µM",16.9%
same,"viability, T/C","second compound 0.1 µM, first compound 1 µM",10.7%
same,"viability, T/C","second compound 0.316 µM, first compound 0.00316 µM",56%
same,"viability, T/C","second compound 0.316 µM, first compound 0.01 µM",44.4%
same,"viability, T/C","second compound 0.316 µM, first compound 0.0316 µM",68.8%
same,"viability, T/C","second compound 0.316 µM, first compound 0.1 µM",32.3%
same,"viability, T/C","second compound 0.316 µM, first compound 0.316 µM",13.8%
same,"viability, T/C","second compound 0.316 µM, first compound 1 µM",11%
same,"viability, T/C","second compound 1 µM, first compound 0.00316 µM",33.2%
same,"viability, T/C","second compound 1 µM, first compound 0.01 µM",36%
same,"viability, T/C","second compound 1 µM, first compound 0.0316 µM",27.2%
same,"viability, T/C","second compound 1 µM, first compound 0.1 µM",19.2%
same,"viability, T/C","second compound 1 µM, first compound 0.316 µM",9.14%
same,"viability, T/C","second compound 1 µM, first compound 1 µM",5.37%
